# Experimental data as given in PubChem BioAssay (NCI).
# Several values for one entry are separate records, joined by “and”; a condition that tells them apart may be missing. Equal values may be shown once.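 In this assay, cells in 96-well plates receive the compound at five concentrations for 48 hours. Endpoints are linearly interpolated between the surrounding concentrations. The concentration for 50% growth inhibition is given as GI50. TGI: total growth inhibition.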
# How the values were obtained:
# Test in all cases: NCI tumour cell line growth inhibition, 48 h
# 786-0 renal = tested on: 786-0 renal
# HL-60(TB) leukemia = tested on: HL-60(TB) leukemia
# HT29 colon = tested on: HT29 colon
# LOX IMVI melanoma = tested on: LOX IMVI melanoma
# MALME-3M melanoma = tested on: MALME-3M melanoma
# NCI/ADR-RES ovarian = tested on: NCI/ADR-RES ovarian
# SK-OV-3 ovarian = tested on: SK-OV-3 ovarian
# SNB-75 CNS = tested on: SNB-75 CNS
# SR leukemia = tested on: SR leukemia
# TK-10 renal = tested on: TK-10 renal
Structure (SMILES),GI50 (786-0 renal),TGI (786-0 renal),GI50 (HL-60(TB) leukemia),TGI (HL-60(TB) leukemia),GI50 (HT29 colon),TGI (HT29 colon),GI50 (LOX IMVI melanoma),TGI (LOX IMVI melanoma),GI50 (MALME-3M melanoma),TGI (MALME-3M melanoma),GI50 (NCI/ADR-RES ovarian),TGI (NCI/ADR-RES ovarian),GI50 (SK-OV-3 ovarian),TGI (SK-OV-3 ovarian),GI50 (SNB-75 CNS),TGI (SNB-75 CNS),GI50 (SR leukemia),TGI (SR leukemia),GI50 (TK-10 renal),TGI (TK-10 renal)
CCN(CCCN(C)C)Cc1cc(I)cc(C)c1O,18.6 µM,40 µM,20 µM,41.5 µM,14.7 µM,32.4 µM,18.3 µM,34.6 µM,19.8 µM,36.8 µM,27 µM,> 100 µM,35.3 µM,> 100 µM,16.1 µM,39.7 µM,1.04 µM,14.5 µM,4.85 µM,22.6 µM
O=C(Nc1ccc2[nH]nc(-c3ccncc3)c2c1)[C@@H]1CCN(CC(=O)N2CCN(c3ccc(-c4ncccn4)cc3)CC2)C1,47.4 µM,> 100 µM,0.132 µM,> 100 µM,0.0335 µM,> 100 µM,0.0539 µM,> 100 µM,–,–,> 100 µM,> 100 µM,> 100 µM,> 100 µM,18.2 µM,> 90.8 µM,4.41 µM,> 65.4 µM,–,–
CC1=CC(=O)C2=C(C)CCC3C(C)C(=O)OC3C12 (centres undefined),–,> 100 µM,–,> 100 µM,–,> 100 µM,–,> 100 µM,–,> 100 µM,–,> 100 µM,–,> 100 µM,–,–,–,> 100 µM,–,> 100 µM
O=c1[nH]c2ccccc2c2ccccc12,> 100 µM,> 100 µM,> 100 µM,> 100 µM,> 100 µM,> 100 µM,> 100 µM,> 100 µM,> 100 µM,> 100 µM,> 100 µM,> 100 µM,23.6 µM,> 100 µM,> 100 µM,> 100 µM,77.3 µM,> 100 µM,> 100 µM,> 100 µM
CC(N)C(Cc1ccc(Cl)cc1)c1ccc(Cl)cc1 (centres undefined),10.2 µM,24.3 µM,10.6 µM,26.1 µM,3.29 µM,13.6 µM,5.56 µM,18.9 µM,8.17 µM,22.1 µM,13.4 µM,36.9 µM,16.8 µM,30.8 µM,3.76 µM,18.3 µM,–,–,12.6 µM,26.2 µM
CCCCCCCCCCCCOC1C(CNC(=O)C2OC3OC(C)(C)OC3C2NC(=O)Nc2ccc(CC(=O)OC)cc2)OC2OC(C)(C)OC21 (centres undefined),> 100 µM,> 100 µM,–,> 47.9 µM,> 100 µM,> 100 µM,47.7 µM,> 100 µM,> 78.1 µM,> 100 µM,> 100 µM,> 100 µM,> 100 µM,> 100 µM,> 100 µM,> 100 µM,> 100 µM,> 100 µM,> 100 µM,> 100 µM
Cc1cccc(N(C)C(=O)[C@@H]2[C@H](O)CCN2c2nc(C)cc(C(F)(F)F)c2C#N)c1,21.6 µM,66.9 µM,3.56 µM,17.4 µM,15.6 µM,49.1 µM,3.61 µM,27.3 µM,19.9 µM,59 µM,22.6 µM,89.1 µM,24.1 µM,81.1 µM,31.4 µM,> 100 µM,5.24 µM,28.6 µM,28.5 µM,> 100 µM
O=Nc1ccc(O)c(=O)cc1,2.18 µM,5.52 µM,0.547 µM,2.59 µM,2.45 µM,10.7 µM,2.16 µM,7.67 µM,1.21 µM,4.14 µM,2.6 µM,10.6 µM,16.2 µM,37.3 µM,3.77 µM,17.2 µM,0.954 µM,9.19 µM,1.82 µM,9.18 µM
O=S(=O)(NCCCNc1nccc(-c2c(-c3ccc(O)cc3)nc3sccn23)n1)c1ccc(F)cc1,3.22 µM,> 100 µM,2.61 µM,5.61 µM,1.52 µM,17.2 µM,0.567 µM,5.44 µM,0.0391 µM,3.56 µM,4.59 µM,> 100 µM,2.12 µM,8.88 µM,1.03 µM,7.91 µM,2.07 µM,> 100 µM,4.48 µM,32.2 µM
COc1ccc2c(c1)/C(=C\c1c(-c3cc(OC)ccc3OC)nc3sc(C)cn13)C(=O)N2C,31.1 µM,> 100 µM,18.3 µM,41.4 µM,–,–,23.9 µM,83.5 µM,> 100 µM,> 100 µM,27.4 µM,> 100 µM,28 µM,> 100 µM,6.68 µM,45.9 µM,20.8 µM,53 µM,48.7 µM,> 100 µM
O=C(CC(Cl)=C(Cl)Cl)Nc1ccccc1,> 100 µM,> 100 µM,> 100 µM,> 100 µM,> 100 µM,> 100 µM,> 100 µM,> 100 µM,> 100 µM,> 100 µM,> 100 µM,> 100 µM,> 100 µM,> 100 µM,–,–,–,–,> 100 µM,> 100 µM
O=C(Cc1ccc(/C=C/C(=O)c2ncc[nH]2)cc1)Nc1ccc(F)cc1,1.37 µM,5.81 µM,1.66 µM,10.6 µM,1.15 µM,4.45 µM,1.07 µM,4.72 µM,7.86 µM,22.1 µM,7.18 µM,> 33.3 µM,9.38 µM,> 33.3 µM,11.1 µM,> 33.3 µM,1.11 µM,6.41 µM,7.89 µM,18.4 µM
NS(=O)(=O)c1ccc(Nc2cc(-c3cccc(O)c3)[nH]n2)cc1,> 25 µM,> 25 µM,> 25 µM,> 25 µM,> 25 µM,> 25 µM,> 25 µM,> 25 µM,> 25 µM,> 25 µM,> 25 µM,> 25 µM,> 25 µM,> 25 µM,24.5 µM,> 25 µM,24.2 µM,> 25 µM,> 25 µM,> 25 µM
Fc1cccc(COc2ccc(Nc3ncnc4sc(-c5cccs5)cc34)cc2Cl)c1,8.34 µM,> 18.7 µM,> 25 µM,> 25 µM,6.93 µM,17.9 µM,> 14.6 µM,> 25 µM,3.52 µM,10.1 µM,4.74 µM,> 17.3 µM,3.47 µM,9.69 µM,4.17 µM,10 µM,> 16.4 µM,> 25 µM,4.76 µM,10.8 µM
CS(=O)(=O)Nc1cncc(-c2ccc3ncnc(Nc4ccc(F)c(Cl)c4)c3c2)c1,2.7 µM,14.8 µM,2.08 µM,9.62 µM,2.43 µM,11.4 µM,1.73 µM,10.2 µM,2.08 µM,13.6 µM,15.4 µM,60 µM,2.09 µM,6.54 µM,0.434 µM,6.92 µM,1.78 µM,10.2 µM,–,–
Cc1nc2ccc(Nc3nc(Cl)nc(N4CCOCC4)n3)cc2n1Cc1ccccc1,11.7 µM,> 100 µM,–,–,–,–,–,–,5.24 µM,24.5 µM,4.43 µM,> 100 µM,3.66 µM,> 100 µM,4.47 µM,29.6 µM,2.83 µM,> 100 µM,35.8 µM,> 100 µM
CCSCC1CC(O)(c2ccccc2)CC(c2ccc(F)cc2)O1 (centres undefined),2.02 µM,4.53 µM,2.19 µM,4.56 µM,1.73 µM,3.46 µM,1.6 µM,2.94 µM,1.56 µM,3.51 µM,2.44 µM,6.66 µM,2.62 µM,7.39 µM,1.88 µM,5.74 µM,–,–,2.16 µM,6.13 µM
Cc1nc([P+](c2ccccc2)(c2ccccc2)c2ccccc2)c(Sc2sc(-c3ccccc3)nc2[P+](c2ccccc2)(c2ccccc2)c2ccccc2)o1,2.34 µM,11.2 µM,1.39 µM,4 µM,0.861 µM,10.6 µM,1.82 µM,5.71 µM,1.36 µM,7.13 µM,3.7 µM,19.8 µM,–,–,1.11 µM,4.31 µM,0.372 µM,17.2 µM,2.09 µM,7.63 µM
COc1cc2c(cc1OC)[C@@H](Nc1ccc(C#N)cc1)C1COC(=O)[C@@H]1C2c1cc(OC)c(O)c(OC)c1 (some centres undefined),–,2.76 µM,–,0.0606 µM and 0.192 µM,–,23.2 µM and > 100 µM,–,–,1.36 µM and 2.47 µM,70.7 µM and 44.2 µM,–,> 100 µM,0.195 µM and 0.548 µM,–,–,4 µM and 2.11 µM,–,0.0742 µM,2.49 µM and 1.06 µM,6.73 µM and 7.87 µM
OCCN1CCN(CCCN2c3ccccc3Sc3ccc(Cl)cc32)CC1,1.87 µM,3.98 µM,2.06 µM,4.16 µM,1.73 µM,3.42 µM,1.59 µM,3.09 µM,1.79 µM,3.59 µM,2.72 µM,9.91 µM,3.04 µM,10.2 µM,3.97 µM,15.6 µM,–,–,1.65 µM,3.08 µM
Cc1cc(S(=O)(=O)Nc2nc3ccccc3o2)c(SCc2ccccc2)cc1Cl,20.8 µM,47.2 µM,36.9 µM,> 100 µM,33.8 µM,> 100 µM,14.9 µM,34.8 µM,–,–,20 µM,40.9 µM,34.3 µM,> 100 µM,38.6 µM,90.8 µM,11.5 µM,> 100 µM,28.6 µM,90.7 µM
Fc1cc2[nH]ncc2c2c3c(c(-c4cn[nH]c4C(F)(F)F)nc12)CCCC3,2 µM,7.16 µM,–,–,2.95 µM,> 100 µM,1.1 µM,3.05 µM,1.91 µM,5.41 µM,4.95 µM,43.4 µM,–,–,1.5 µM,2.95 µM,0.716 µM,5.87 µM,–,–
COc1ccc(/C=C(/C#N)C(N)=O)c(OC)c1,–,> 100 µM,–,> 100 µM,–,> 100 µM,–,> 100 µM,–,–,–,> 100 µM,–,> 100 µM,–,> 100 µM,–,> 100 µM,–,> 100 µM
COc1cc(Nc2nc3cc(N)cc(N)c3nc2-c2ccccc2)cc(OC)c1OC,14.6 µM,40.3 µM,6.65 µM,23.3 µM,–,35 µM,18.5 µM,49 µM,13 µM,28.2 µM,14.4 µM,44.1 µM,23 µM,57.8 µM,–,–,3.31 µM,16 µM,23.9 µM,66.5 µM
C=C1CC[C@@H]2[C@](C)(COC(C)=O)[C@H](OC(C)=O)CC[C@@]2(C)[C@@H]1CC(Nc1ccc(S(=O)(=O)NC(C)=O)cc1)C1=CCOC1=O (some centres undefined),2.44 µM,7.98 µM,2.45 µM,12 µM,1.57 µM,3.55 µM,1.25 µM,2.42 µM,–,–,2.51 µM,9.14 µM,9.31 µM,18.7 µM,3.08 µM,12.7 µM,0.991 µM,18.1 µM,8.01 µM,16.9 µM
COc1ccc(/C=C/C(=O)c2cc(OC)c(OC)c(OC)c2)cc1OCC(=O)Nc1nc2ccc(OC(F)(F)F)cc2s1,2.26 µM,4.97 µM,–,–,3.66 µM,79.4 µM,0.47 µM,1.95 µM,2.69 µM,13.5 µM,0.492 µM,2.31 µM,2.16 µM,5.07 µM,0.34 µM,2.3 µM,0.391 µM,3.66 µM,2.08 µM,4.62 µM
Cc1cc2nc3c4cc(O)ccc4n(CCN(C)C)c3nc2cc1C,0.929 µM,2.42 µM,0.364 µM,1.76 µM,0.475 µM,2.31 µM,–,–,1.14 µM,2.41 µM,0.499 µM,4.2 µM,1.8 µM,> 61 µM,0.229 µM,2.92 µM,0.309 µM,–,2.21 µM,6.13 µM
